# According to patent US10160771B2, “Hepatitis C virus inhibitors and uses thereof in preparation of drugs” (priority 2014, dated 2018):
# pEC50: −log10 of the molar value.
# Legend:
# [1] = Cell Titer-fluor cell activity assay in HCV-1b replicon cells (CC50); type: cell-based
# Outline: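 Con1 genotype 1b replicon cells (E1202G, T1280I, K1846T adaptive mutations), 8000 cells/well, exposed to 6-point 5-fold dilutions from 100, 10 or 1 nM top concentration in 0.5% DMSO, duplicate wells, 3 days at 37 °C. Viability read by Cell Titer-fluor (Ex 405/Em 515 nm) after 30 min; CC50 from nonlinear fit of inhibition %.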
# [2] = tested on: HCV genotype 1a (HCV-1a) replicon cells; assay: HCV genotype 1a replicon luciferase assay (EC50); type: cell-based, hepatitis C virus genotype 1a (H77 clone); conditions: 3 days, luciferase (Bright-Glo)
# Outline: (§1)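 Stable subgenomic replicon cells (1a: H77 with K1691R, K2040R, S2204I; 1b: Con1 with E1202G, T1280I, K1846T) carrying luciferase and neo were seeded at 8000 cells/well onto compounds (5-fold, 6-point, top 100, 10 or 1 nM; 0.5% DMSO) for 3 days at 37 °C. Bright-Glo luminescence gave EC50 by nonlinear fit.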
# [3] = tested on: HCV genotype 1b (HCV-1b) replicon cells; assay: HCV genotype 1b replicon luciferase assay (EC50); type: cell-based, hepatitis C virus genotype 1b (Con1 clone); conditions: 3 days, luciferase (Bright-Glo)
# Outline: as §1
SMILES,CC50 at 3 days [1] [nM],"pEC50 ([2]; Hepatitis C virus, 72 h)","pEC50 ([3]; Hepatitis C virus, 72 h)",pEC50 [2],pEC50 [3]
COC(=O)N[C@H](C(=O)N1CCC[C@H]1c1ccc(-c2ccc(-c3ccc(-c4cnc([C@@H]5CCCCN5C(=O)[C@@H](NC(=O)OC)[C@@H](C)OC)[nH]4)cc3)cc2)[nH]1)[C@@H](C)OC [AG_120],> 1,8.00 to 9.00,10.00 to 12.00,–,–
COC(=O)N[C@H](C(=O)N1CCC[C@H]1c1ncc(-c2ccc(-c3ccc(-c4cnc([C@@H]5C6CCC(C6)[C@H]5C(=O)NCc5ccco5)[nH]4)cc3)cc2)[nH]1)C(C)C (stereo partly drawn) [AA_198_B],> 1,7.00 to 8.00,10.00 to 12.00,–,–
COC(=O)N[C@H](C(=O)N1CCC[C@H]1c1ncc(-c2ccc(-c3ccc(-c4[nH]c([C@@H]5CCCN5C(=O)[C@@H](NC(=O)OC)C(C)C)c5c4CCCC5)cc3)cc2)[nH]1)C(C)C [AG_015_A],> 1,7.00 to 8.00,10.00 to 12.00,–,–
COC(=O)N[C@H](C(=O)N1CCC[C@@H]1c1[nH]c(-c2ccc(-c3ccc(-c4cnc([C@@H]5CCCN5C(=O)[C@@H](NC(=O)OC)[C@@H](C)OC)[nH]4)cc3)cc2)c2c1COC2)C(C)OC (stereo partly drawn) [AG_080_B],> 5,8.00 to 9.00,9.00 to 10.00,–,–
COC(=O)N[C@H](C(=O)N1CCC[C@H]1c1ncc(-c2ccc(-c3ccc(-c4cnc(C5C6CCC(C6)[C@@H]5C(=O)NCc5cncnc5)[nH]4)cc3)cc2)[nH]1)[C@@H](C)OC (stereo partly drawn) [AA_249_A],> 1,9.00 to 10.00,10.00 to 12.00,–,–
COC(=O)N[C@H](C(=O)N1C[C@@H](OC)C[C@H]1c1ncc(-c2ccc(-c3ccc(-c4cnc([C@H]5C6CCC(C6)[C@@H]5C(=O)NCc5cccnc5)[nH]4)cc3)cc2)[nH]1)C(C)C (stereo partly drawn) [AA_230_B],> 1,8.00 to 9.00,10.00 to 12.00,–,–
COC(=O)N[C@H](C(=O)N1CCC[C@H]1c1ccc(-c2ccc(-c3ccc(-c4cnc([C@H](C)NC(=O)[C@@H](NC(=O)OC)[C@@H](C)OC)[nH]4)cc3)cc2)[nH]1)C(C)OC (stereo partly drawn) [AG_112],> 1,8.00 to 9.00,10.00 to 12.00,–,–
COC(=O)N[C@H](C(=O)N1CCC[C@H]1c1ccc(-c2ccc(-c3ccc(-c4cnc([C@@H]5CC6(CCCC6)CN5C(=O)[C@@H](NC(=O)OC)[C@@H](C)OC)[nH]4)cc3)cc2)[nH]1)[C@@H](C)OC [AG_110],> 1,9.00 to 10.00,10.00 to 12.00,–,–
COC(=O)N[C@H](C(=O)N1CCC[C@H]1c1ncc(-c2ccc(-c3ccc(-c4cnc([C@H]5C6CCC(C6)[C@@H]5C(=O)NNc5nccnc5Cl)[nH]4)cc3)cc2)[nH]1)C(C)C (stereo partly drawn) [AA_244_A],> 1,7.00 to 8.00,9.00 to 10.00,–,–
COC(=O)N[C@H](C(=O)N1CCC[C@H]1c1ncc(-c2ccc(-c3ccc(-c4cnc([C@@H]5C6CCC(C6)[C@H]5C(=O)NCc5cnccn5)[nH]4)cc3)cc2)[nH]1)C(C)C (stereo partly drawn) [AA_206_B],> 1,8.00 to 9.00,10.00 to 12.00,–,–
COC(=O)N[C@H](C(=O)N1CCC[C@H]1c1cnc(-c2ccc(-c3ccc(-c4ncc(C5C6CCC(C6)[C@@H]5C(=O)N(NC(=O)OC)C(C)C)[nH]4)cc3)cc2OC)[nH]1)C(C)C (stereo partly drawn) [AA_166_B],> 5,7.00 to 8.00,9.00 to 10.00,–,–
COC(=O)N[C@H](C(=O)N1CCC[C@H]1c1[nH]c(-c2ccc(-c3ccc(-c4cnc([C@@H]5CCCN5C(=O)[C@@H](NC(=O)OC)[C@@H](C)O)[nH]4)cc3)cc2)c2c1CCC2)C(C)C [AG_090],> 1,8.00 to 9.00,10.00 to 12.00,–,–
COC(=O)NC(C(=O)N1CCCC1c1ccc(-c2ccc3c(c2)C(C)(C)c2cc(-c4cnc([C@@H]5CCCN5C(=O)[C@@H](NC(=O)OC)C(C)C)[nH]4)ccc2-3)[nH]1)[C@@H](C)OC (stereo partly drawn) [AG_085],> 1,7.00 to 8.00,10.00 to 12.00,–,–
"COC(=O)N[C@H](C(=O)N1CCC[C@H]1c1ncc(-c2ccc(-c3ccc(-c4cnc([C@H]5C6CCC(C6)[C@@H]5C(=O)NC(C)c5cccnc5)[nH]4)cc3)cc2)[nH]1)C(C)C (single isomer, unassigned) [AA_204_A]",> 1,–,10.00 to 12.00,9.00 to 10.00,–
COC(=O)N[C@H](C(=O)N1CCCC1c1ncc(-c2ccc3c(c2)oc2cc(-c4ccc([C@@H]5CCCN5C(=O)[C@@H](NC(=O)OC)[C@@H](C)OC)[nH]4)ccc23)[nH]1)[C@@H](C)OC (stereo partly drawn) [AG_103],> 1,8.00 to 9.00,10.00 to 12.00,–,–
COC(=O)N[C@H](C(=O)N1CCC[C@H]1c1ncc(-c2ccc(-c3ccc(-c4cnc(C5C6CCC(C6)[C@@H]5C(=O)NCCc5ccncc5)[nH]4)cc3)cc2)[nH]1)[C@@H](C)OC (stereo partly drawn) [AA_266_A],> 1,8.00 to 9.00,9.00 to 10.00,–,–
COC(=O)N[C@H](C(=O)N1CCC[C@H]1c1ncc(-c2ccc(-c3ccc(-c4ccc([C@H]5CCCN5C(=O)N(NC(=O)OC)C(C)C)[nH]4)cc3)cc2)[nH]1)C(C)C [AG_081_B],> 1,7.00 to 8.00,10.00 to 12.00,–,–

SMILES,CC50 at 3 days [1] [nM],"pEC50 ([2]; Hepatitis C virus, 72 h)","pEC50 ([3]; Hepatitis C virus, 72 h)",pEC50 [2],pEC50 [3]
COC(=O)N[C@H](C(=O)N1CCC[C@H]1c1ncc(-c2ccc(-c3ccc(-c4cnc([C@H]5C6CCC(C6)[C@@H]5C(=O)NCc5cccnc5C)[nH]4)cc3)cc2)[nH]1)C(C)C (stereo partly drawn) [AA_217],> 1,7.00 to 8.00,8.00 to 9.00,–,–
COC(=O)N[C@H](C(=O)N1CCC[C@H]1c1[nH]c(-c2ccc(-c3ccc(-c4cnc([C@@H]5CCCN5C(=O)[C@@H](NC(=O)OC)[C@@H](C)OC)[nH]4)cc3)cc2)c2c1COC2)C(C)C [AG_077],> 5,10.00 to 12.00,10.00 to 12.00,–,–
COC(=O)N[C@H](C(=O)N1CCC[C@H]1c1ncc(-c2ccc(-c3ccc(-c4cnc(C5C6CCC(C6)[C@H]5C(=O)NCc5cnccn5)[nH]4)cc3)cc2)[nH]1)[C@@H](C)OC (stereo partly drawn) [AA_268_B],> 1,8.00 to 9.00,10.00 to 12.00,–,–
COC(=O)N[C@H](C(=O)N1CCC[C@H]1c1ncc(-c2ccc(-c3ccc(-c4cnc(C5C6CCC(C6)[C@H]5C(=O)N[C@@H](C)c5ccccc5)[nH]4)cc3)cc2)[nH]1)[C@@H](C)OC (stereo partly drawn) [AA_262_B],> 1,9.00 to 10.00,10.00 to 12.00,–,–
COC(=O)N[C@H](C(=O)N1CCC[C@H]1c1ncc(-c2ccc(-c3ccc(-c4cnc([C@H]5CCCC[C@@H]5C(=O)N(NC(=O)OC)C(C)C)[nH]4)cc3)cc2)[nH]1)C(C)C [AA_091_B],> 10,7.00 to 8.00,9.00 to 10.00,–,–
COC(=O)N[C@H](C(=O)N1CCC[C@H]1c1ncc(-c2ccc(-c3ccc(-c4cnc([C@@H]5C6CCC(C6)[C@H]5C(=O)NCc5ccccc5)[nH]4)cc3)cc2)[nH]1)C(C)C (stereo partly drawn) [AA_207_B],> 1,7.00 to 8.00,10.00 to 12.00,–,–
"COC(=O)NC(C(=O)N1CCCC1c1[nH]c(-c2ccc(-c3ccc(-c4cnc([C@@H]5CCCN5C(=O)[C@@H](NC(=O)OC)C(C)C)[nH]4)cc3)cc2)c2c1CCC2)C1CCOC1 (single isomer, unassigned) [AG_025_A]",> 10,7.00 to 8.00,–,–,10.00 to 12.00
COC(=O)N[C@H](C(=O)N1CCC[C@H]1c1ncc(-c2ccc(-c3ccc(-c4cnc([C@@H]5[C@H]6CC[C@H](C6)[C@H]5C(=O)NN(C(=O)OC)C(C)C)[nH]4)cc3)cc2)[nH]1)C(C)C [AA_299_ENDOA2],> 1,7.00 to 8.00,10.00 to 12.00,–,–
COC(=O)NC(C(=O)N1CCCC1c1[nH]c(-c2ccc(-c3ccc(-c4cnc([C@@H]5CCCN5C(=O)[C@@H](NC(=O)OC)C(C)C)[nH]4)cc3)cc2)c2c1CCCC2)C1CCOC1 (stereo partly drawn) [AG_027],> 10,7.00 to 8.00,9.00 to 10.00,–,–
COC(=O)N[C@H](C(=O)N1CCC[C@H]1c1ncc(-c2ccc(-c3ccc(-c4cnc(C5C6CCC(C6)[C@@H]5C(=O)Nc5ccccc5)[nH]4)cc3)cc2)[nH]1)[C@@H](C)OC (stereo partly drawn) [AA_246_A],> 1,7.00 to 8.00,10.00 to 12.00,–,–
COC(=O)N[C@H](C(=O)N1CCC[C@H]1c1ncc(-c2ccc(-c3ccc(-c4cnc([C@@H]5[C@H]6CC[C@H](C6)[C@H]5C(=O)N[C@H](C)c5cccnc5)[nH]4)cc3)cc2)[nH]1)C(C)C [AA_204_ENDOA2_B],> 1,8.00 to 9.00,10.00 to 12.00,–,–
COC(=O)N[C@H](C(=O)N1C[C@@H](OC)C[C@H]1c1ncc(-c2ccc(-c3ccc(-c4cnc([C@@H]5C6CCC(C6)[C@H]5C(=O)NCc5cccnc5)[nH]4)cc3)cc2)[nH]1)C(C)C (stereo partly drawn) [AA_230_A],> 1,9.00 to 10.00,10.00 to 12.00,–,–
COC(=O)N[C@H](C(=O)N1CCC[C@H]1c1ncc(-c2ccc(-c3ccc(-c4cnc(C5CCCC[C@@H]5C(=O)N(NC(=O)OC)C(C)C)[nH]4)cc3C(F)(F)F)cc2)[nH]1)C(C)C (stereo partly drawn) [AA_127],> 10,7.00 to 8.00,9.00 to 10.00,–,–
COC(=O)N[C@H](C(=O)N1CCC[C@H]1c1ncc(-c2ccc(-c3ccc(-c4cnc([C@@H]5[C@H]6CC[C@H](C6)[C@H]5C(=O)N[C@@H](C)c5cccnc5)[nH]4)cc3)cc2)[nH]1)C(C)C [AA_204_ENDOA2_A],> 1,10.00 to 12.00,10.00 to 12.00,–,–
COC(=O)N[C@H](C(=O)N1CCCC1c1cc(Cl)c(-c2ccc(-c3ccc(-c4cnc([C@@H]5CCCN5C(=O)[C@@H](NC(=O)OC)C(C)C)[nH]4)cc3)cc2)[nH]1)C(C)C (stereo partly drawn) [AG_087],> 1,9.00 to 10.00,10.00 to 12.00,–,–
COC(=O)N[C@H](C(=O)N1CCC[C@H]1c1ncc(-c2ccc(-c3ccc(-c4cnc([C@H]5C6CCC(C6)[C@@H]5C(=O)NCc5cncc(C(C)C)c5)[nH]4)cc3)cc2)[nH]1)C(C)C (stereo partly drawn) [AA_235_A],> 1,7.00 to 8.00,10.00 to 12.00,–,–
